Assay [1] has as its system 786-O cells. Nature of the assay: Cell growth test (MTT), 786-O. Particulars: Homo sapiens, 786-0, MTT test after 48 h, read-out: IC50 (concentration necessary to inhibit 50% of cell growth). It counts as cell-based. As for the experimental part:
(§1) The cell growth tests are carried out in transparent 96-well microplates (Greiner) after having seeded 100 μl/well of a cell solution having 2·10^5 cells/ml to 5·10^5 cells/ml (depending on the cell lines). After incubating for 24 h at 37° C. with 5% CO2, the culture medium is removed and replaced with solutions of the molecule to be tested at various concentrations. The cells are incubated with these molecules for an additional 48 h at 37° C. with 5% CO2. After elimination of the medium, the cells are washed with blank RPMI (Gibco, Invitrogen) then incubated with 3-(4,5-dimethylthiazol-2-yl)-2,5-diphenyltetrazolium bromide or MTT (0.5 mg/ml final concentration) for 4 h at 37° C. with 5% CO2. MTT (Sigma Aldrich) makes it possible to estimate the viability of the cells by measuring the activity of a mitochondrial enzyme. Indeed, in living cells, mitochondrial dehydrogenases are capable of cleaving the tetrazolium ring, thus leading to the formation of formazan crystals that are insoluble in an aqueous medium. These crystals are dissolved with the addition of a solubilizing solution (isopropanol, 10% Triton X100, 0.1 N HCl). After stirring, the absorbance is measured at 570 nm using the FLUOstar OPTIMA microplate reader. […]
(§2) The viability of the cells was evaluated using an MTT test after 48 h of exposure with various concentrations of molecules (from 100 μM to 0.001 μM). […]
For orientation: Tetrazolium assays rely on reduction of a dye to a coloured formazan, in cell work by metabolically active cells.

The test system of assay [2] is MES-SA DX5 cells. In words: Cell growth test (MTT), MES-SA DX5. Format: cell-based. Particulars: Homo sapiens; MES-SA DX5 (multi-drug resistant, P-glycoprotein), MTT test after 48 h; read-out: IC50 (concentration necessary to inhibit 50% of cell growth). As to the method: as §1, §2
Assay [3] concerns HeLa cells. In words: Cell growth test (MTT), HeLa. It counts as cell-based. Particulars: Homo sapiens, MTT test after 48 h, read-out: IC50 (concentration necessary to inhibit 50% of cell growth). As to the method:
as §1, §2

Assay [4] has as its system NCI-H460 cells. Nature of the assay: Cell growth test (MTT), NCI-H460. Format: cell-based. Particulars: Homo sapiens; NCI-H460, MTT test after 48 h; read-out: IC50 (concentration necessary to inhibit 50% of cell growth). As to the method:
as §1, §2

For assay [5], the system named is MES-SA cells. In words: Cell growth test (MTT), MES-SA. It counts as cell-based. The settings on record: Homo sapiens, MTT test after 48 h, read-out: IC50 (concentration necessary to inhibit 50% of cell growth). As to the method: as §1, §2
Assay [6] has as its system purified tubulin. Nature of the assay: In vitro assembly of purified tubulin. Format: biochemical. Particulars: tubulin 1 mg/ml; Compound 1 at 25, 50, 100 μM. As for the experimental part:
FIG. 5 compares the effects of the Compound 1 of the invention with the effect of paclitaxel (Taxol®) on the assembly of the tubulin purified in vitro. Purified tubulin (1 mg/ml) is incubated in PEM buffer in the presence of GTP (1 mM), MgCl2 (5 mM), DAPI (10 μM) at 37° C. The effect of Compound 1 of the invention at various concentrations (×25 μM, ⊚ 50 μM and Δ 100 μM) is compared to that of paclitaxel (Taxol®) (▪) and of DMSO ( ? );
In order to know whether Compound 1 of the invention exerts its stabilizing effect via a direct action on tubulin, such as paclitaxel does, or by means an effector, its effect on the in vitro assembly of tubulin in microtubules has been analyzed. The first experiments were carried out on purified tubulin (1 mg/ml).

Assay [7] concerns actin network of HeLa cells. Nature of the assay: Stability of the actin network to a depolymerization induced by latrunculin B. Format: cell-based, Human. Particulars: HeLa cells, confocal microscope. As to the method: 7. a step of analysis of the effect of the compound to be tested on the actin network, via incubation of HeLa cells with the compound to be tested. […] When the actin network is stabilized, the latrunculin-induced depolymerization of the actin network is limited.
The cells are grown on glass coverslips and incubated as for the tubulin staining. After elimination of the medium, the cells are washed with warm PBS then fixed, by addition of a solution of PBS/3.7% formaldehyde for 30 minutes at 37° C. The cells are washed with PBS then permeabilized with a solution of PBS/0.2% Triton X100 for 15 minutes at room temperature. After another washing with PBS, the cells are incubated with a solution of PBS/1% BSA for 30 minutes at room temperature. The cells are then incubated with phalloidin (0.165 μM final concentration) labelled with Alexa Fluor® 488 (Molecular Probes, Invitrogen) for 20 minutes at room temperature. The cells are washed a final time with PBS then dehydrated with pure ethanol. Finally, the cells are fixed to slides using a Fluorsave™ mounting solution.
8) Test for the Action on the Actin Cytoskeleton: Protocol for Evaluating, in Cells, the Stability of the Actin Network to a Depolymerization Induced by Latrunculin B
3 days before the experiment, glass coverslips are deposited under sterile conditions in 24-well microplates. In each well, HeLa cells (15 000 cells per well) in the exponential growth phase are seeded in 500 μl of RPMI medium.
PBS (phosphate buffered saline, ref. P4417, Sigma), PBS/1% BSA (bovine serum albumin, Ref. A3059, Sigma), aliquots of 15 ml, stored at −20° C.; PBS/0.2% Triton X100 (Ref. T8787, Sigma); PBS/0.01% Tween® 20 (Ref. P9916, Sigma); PBS/0.3% BSA/0.02% NaN3 (Ref. for the NaN3: 6688, Merck), aliquots of 15 ml stored at −20° C. Phalloidin A488, (Ref. A12379, Invitrogen). L4: rabbit anti-detyrosinated-tubulin polyclonal antibody (cf. Fonrose et al., Cancer Res., […], 67:3371-3378). Anti-rabbit antibody coupled to Cyanine 3 (Ref. 111.165.144, Jackson Laboratories). […]

For `Cc1c2cc[nH]c(=O)c2c(C)c2c1[nH]c1ccc(OCc3ccccc3)cc12` [Compound 3, 9-benzyloxy-5,11-dimethyl-2H,6H-pyrido[4,3-b]carbazol-1-one], the IC50 in assay [1] was 3.34 µM; in assay [2] it was 13.9 µM; in assay [3], 3.05 µM; in assay [4], 1.52 µM; in assay [5] it was 33.9 µM.
In the case of `CC(=O)O[C@H]1C(=O)[C@@]2(C)[C@H]([C@H](OC(=O)c3ccccc3)[C@]3(O)C[C@H](OC(=O)[C@H](O)[C@@H](NC(=O)c4ccccc4)c4ccccc4)C(C)=C1C3(C)C)[C@]1(OC(C)=O)CO[C@@H]1C[C@@H]2O` [paclitaxel, reference compound], the “Assembly of purified tubulin in vitro” value in assay [6] is “can induce the assembly of tubulin”. The “Protection of the actin network from depolymerization by latrunculin B” value in assay [7] is on record as “Neither DMSO nor paclitaxel (Taxol®) are able to induce such a protective effect”.

For the origin of these results see patent US8604048B2, “Pyridocarbazole type compounds and applications thereof” (Centre National de la Recherche Scientifique, priority 2009, dated 2013).
